For assay [1], the system named is collagen antibody-induced arthritis (CAIA) mice. Description: Histological score of ankle joints (hind legs) in CAIA mice. The conditions noted are these: oral gavage. Type of assay: in vivo, Male BALB/c mice. The protocol: (§1) Each compound (140 mg of pea protein; 100 mg of Acacia gum; and 100 mg of alpha-Glucooligosaccharide) were administered in a PBS solution via oral gavage daily, from day 0 to day 14 in mice of Group A, and from day 4 to day 14 in mice of Group B. Prednisolone was administered via oral gavage at the doses of 0.05, 0.2 and 1 mg/kg as disclosed in Oosten, L., Helsen, M., Saxne, T. et al. “Synergistic protection against cartilage destruction by low dose prednisolone and interleukin-10 in established murine collagen arthritis”. Inflamm. Res. 48, 48-55, 1999.
(§2) The animals were divided into the following two groups: • Group A: the animals were administered with the therapeutic compounds from day 0 to day 14. • Group B: the animals were administered with the therapeutic compounds from day 4 to day 14.
(§3) Sham+vehicle (negative control) (n=3) • 2. Sham+prednisolone 0.05 mg/kg (n=3) • 3. […] Sham+prednisolone 0.2 mg/kg (n=3) • 5. […] Sham+prednisolone 1 mg/kg (n=3) • 7. […] Sham+MD (n=3) • 9. CAIA+vehicle (positive control) (n=6) • 10. CAIA+prednisolone 0.05 mg/kg (n=6) • 11. […] CAIA+prednisolone 0.2 mg/kg (n=6) • 13. […] CAIA+prednisolone 1 mg/kg (n=6) • 15. […] CAIA+140 mg Pea Protein (n=6) • 18. […] CAIA+200 mg Pea Protein (n=6) • 20. […] CAIA+70 mg Pea Protein (n=6)
Histological analysis was carried out as previously described (Balkrishna A, et al., supra; Mengdi et al., “A novel dexamethasone-loaded liposome alleviates rheumatoid arthritis in rats”; International Journal of Pharmaceutics; 2018; vol. 540(1-2); pp. 57-64) and indicating score analysis of the RA disease-associated lesions such as the moderately enlarged synovial membrane, hyperplastic synovium, the presence of inflammation and bone and cartilage erosion on a 0-4 scale as follows: 0=normal; 1=mild, slight swelling; 2=moderate swelling; 3=severe swelling; 4=maximally inflamed; […].
Histopathological analysis of the CAIA mice hind legs was performed following fourteen days of treatment. Ankle-joints analysis of the CAIA mice was performed indicating the development of arthritis disease-associated lesions such as the moderately enlarged synovial membrane, hyperplastic synovium, increased synovial vascularity, the presence of inflammation and, bone and cartilage erosion.

The subject of assay [2] is IL-17, IL-6, IL-23, TNF-α and IL-1β. The conditions noted are these: CAIA mice; prednisolone at high doses (group 14); combination groups 13 and 15; FIGS. 1-2.
Protocol: The mAb cocktail contained three mAb (F10, A2, D8) of type IgG2a and one mAb (D1) of type IgG2b in equal amounts, directed to bovine CII (Arthrogen-CIA, Chondrex) suspended in sterile PBS. All WT mice received intraperitnoeal i.p. injections of 8 mg/mouse of Arthrogen on day 0 and 50 ug/mouse of LPS from E. coli strain 0111B4 (Sigma, T 3382) on day 3 to synchronize the development of arthritis. All mice started to develop arthritis at day 4 and were sacrificed at day 14.
Animals from group A and B were separated in some the following subgroups, depending on the assay, and administered with the indicated compounds or combination of compounds: • 1. Sham+vehicle (negative control) (n=3) • 2. Sham+prednisolone 0.05 mg/kg (n=3) • 3. Sham+prednisolone 0.05 mg/kg +MD (50 mg acacia gum (AG) +70 mg pea protein (PP)+50 mg alpha-GOS) (n=3) • 4. Sham+prednisolone 0.2 mg/kg (n=3) • 5. Sham+prednisolone 0.2 mg/kg+MD (50 mg AG+70 mg PP+50 mg alpha-GOS) (n=3) • 6. Sham+prednisolone 1 mg/kg (n=3) • 7. Sham+prednisolone 1 mg/kg+MD (50 mg AG+70 mg PP+50 mg alpha-GOS) (n=3) • 8. Sham+MD (n=3) • 9. CAIA+vehicle (positive control) (n=6) • 10. CAIA+prednisolone 0.05 mg/kg (n=6) • 11. CAIA+prednisolone 0.05 mg/kg+MD (50 mg AG+70 mg PP+50 mg alpha-GOS) (n=6) • 12. CAIA+prednisolone 0.2 mg/kg (n=6) • 13. CAIA+prednisolone 0.2 mg/kg (n=6)+MD (50 mg AG+70 mg PP+50 mg alpha-GOS) (n=6) • 14. […]
The test system of assay [3] is collagen antibody-induced arthritis (CAIA) mice. Description: Radiological score (X-ray) of ankle joints in CAIA mice. The assay is classed as in vivo, Male BALB/c mice. The note with it: oral gavage, score 0-3. The protocol:
as §1, §2, §3
Radiological analysis was carried out using X-ray technique, and radio-logical scoring (level: 0=Normal; 1=Slight; 2=Moderate and 3=Severe) was calculated considering different parameters such as periosteal reaction/hypertrophy, bone erosion, soft tissue swelling, narrowed joint space and osteoporosis in the ankle-joints, as described in Balkrishna A, et al., “Herbo-mineral formulation ‘Ashwashila’ attenuates rheumatoid arthritis symptoms in collagen-antibody-induced arthritis (CAIA) mice model” Sci Rep., 2019; vol. 9(1); pp. 8025.

Where [4] appears, read: group A (dosed day 0 to day 14), subgroup 10A: prednisolone 0.05 mg/kg.
[5] abbreviates: group A (dosed day 0 to day 14), subgroup 12A: prednisolone 0.2 mg/kg.
[6] abbreviates: group A (dosed day 0 to day 14), subgroup 14A: prednisolone 1 mg/kg.
The mark [7] stands for this setting: group B (dosed day 4 to day 14), subgroup 10B: prednisolone 0.05 mg/kg.
[8] abbreviates: group B (dosed day 4 to day 14), subgroup 12B: prednisolone 0.2 mg/kg.
Setting [9] is: group B (dosed day 4 to day 14), subgroup 14B: prednisolone 1 mg/kg.

On to `C[C@]12C=CC(=O)C=C1CC[C@@H]1[C@@H]2[C@@H](O)C[C@@]2(C)[C@H]1CC[C@]2(O)C(=O)CO` [prednisolone], for which the “Histological score, MEAN” value in assay [1] (setting [4]) was determined as 1.8; in assay [1] (setting [5]), 1.3; in assay [1] (setting [6]) it was 1.1; in assay [1] (setting [7]), 2.4; in assay [1] (setting [8]) it was 1.8; in assay [1] (setting [9]), 1.9. Moreover, in assay [2], the “cytokine levels (IL-17, IL-6, IL-23, TNF-α and IL-1β) in arthritic hind paws” value is listed as “significantly reduced the expressions of the aforementioned cytokines”. The “Radiological score, MEAN” value in assay [3] (setting [4]) was 2.3; in assay [3] (setting [5]), 1.8; in assay [3] (setting [6]) it was 1.7; in assay [3] (setting [7]), 2.6; in assay [3] (setting [8]), 1.9; in assay [3] (setting [9]) it was 1.8.

The record behind these values is patent publication US20250134953A1, “COMPOSITIONS FOR TREATING AUTOIMMUNE ARTHRITIS” (DEVINTEC SAGL, priority 2021, published 2025).
